Experimental data published in patent US20240366728A1, “Treatment of Diabetes Mellitus” (Carmot Therapeutics Inc., priority 2023, published 2024).
Ends that are not written are not given here.

Tests used:
[1] = pharmacokinetics in CD-1 mice, single SC injection; conditions: 1 mg/kg SC
Description: Blood was kept on ice until centrifuged at 4600 rpm for five minutes at 4° C. Plasma was stored at −80° C. until analysis. Compounds were extracted from plasma and quantified against a standard curve using an AB Sciex 7500+LC-MS/MS system (FIG. 5).

[2] = test system: participants with obesity and participants with T2DM; assay: CT-868-003 crossover study: safety; format: in vivo, human; conditions: in vivo
Text: Safety assessments of this study included treatment-emergent adverse events (TEAEs), serious adverse events (SAEs), adverse events of special interest (AESI), vital signs, 12-lead electrocardiogram (ECG), clinical lab evaluations, and physical exam.
Safety assessments which occurred throughout the entire study, included monitoring of incidence and severity of AEs, treatment-emergent AEs (TEAEs) and AEs of special interest (AESIs) (e.g., GI events, hypoglycemia), clinical laboratory abnormalities (ECGs, chemistry, hematology, and urinalysis), and changes in vital sign measurements (BP, heart rate, respiratory rate, and aural temperature).
AE terms recorded by the Investigator were coded to system organ class (SOC) and preferred term (PT) using the Medical Dictionary for Regulatory Activities (MedDRA) version 24.0. Severity was collected using the Common Terminology Criteria for AEs (CTCAE) version 5.0 Toxicity Grade. Events with missing severity were summarized as Grade 3. TEAEs summarized by severity counted each participant once for the maximum severity within each SOC and PT within each in-house treatment period and overall. TEAEs marked with a relationship to study treatment as definitely, probable, possible, or missing were considered as related TEAEs. Events with missing relationship to study treatment were summarized as related. The number and percentage of participants with TEAEs were summarized by MedDRA-coded SOCs and PTs.

C57BL/6J-DIO mice = assay: intraperitoneal glucose tolerance test in DIO mice; format: in vivo, mouse; conditions: for efficacy in ipGTT eight hours post-drug administration (in words): C57BL/6J-DIO mice, single dose 2.4 nmol/kg
[3] = test system: lean C57BL/6J, GLP-1R+/+ and GLP-1R-/- mice; assay: single intracerebroventricular injection: food consumption and body weight; conditions: lean mice, single ICV 0.025 nmol, up to 72 h
human GLP-1R = human GLP-1R (Homo sapiens, UniProt P43220); assay: receptor internalization (Nano-Glo HiBiT), human GLP-1R; format: cell-based; parameters: host or cells: HEK293
Chain of human GLP-1R (P43220 24-463): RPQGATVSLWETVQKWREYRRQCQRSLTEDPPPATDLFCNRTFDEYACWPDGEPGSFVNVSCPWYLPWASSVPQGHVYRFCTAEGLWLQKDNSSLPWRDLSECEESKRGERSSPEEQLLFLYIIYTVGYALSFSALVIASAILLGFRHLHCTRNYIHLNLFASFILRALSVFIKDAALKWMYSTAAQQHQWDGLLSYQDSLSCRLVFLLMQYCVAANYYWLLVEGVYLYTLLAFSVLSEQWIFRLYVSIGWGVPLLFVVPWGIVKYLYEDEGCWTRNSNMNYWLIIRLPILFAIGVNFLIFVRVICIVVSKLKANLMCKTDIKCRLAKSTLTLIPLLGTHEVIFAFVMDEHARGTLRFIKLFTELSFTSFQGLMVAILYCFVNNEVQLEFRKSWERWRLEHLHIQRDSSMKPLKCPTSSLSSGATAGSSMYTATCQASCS
Description: GLP-1R and GIPR internalization were measured using Promega's Nano-Glo® HiBit extracellular detection system (Promega Corporation; Madison, WI). Hek293 cells were transiently transfected with HiBiT-tagged hGLP-1R or hGIPR plasmids (Promega Corporation; Madison, WI). Cells were lifted using the TrypLE express enzyme (ThermoFisher Scientific) and plated at 80,000-100,000 cells per well in 96 well plates. Cells were then treated with Nano-Glo HibiT extracellular buffer containing LgBiT protein (1:100), and the Nano-Glo HiBiT extracellular substrate (1:50).
GLP-1R and GIPR internalization was measured using Promega's Nano-Glo® HiBit extracellular detection system (Promega Corporation; Madison, WI). HEK293 cells were transiently transfected with low quantities of HiBiT-tagged hGLP-1R or hGIPR plasmids (Promega Corporation; Madison, WI). The next day, cells were lifted using TrypLE express enzyme (ThermoFisher Scientific) and plated at 80,000-100,000 cells per well in 96 well plates.

In the case of CCCCCCCCCCCCCCCC(=O)N[C@@H](CCC(=O)NCCCC[C@H](NC(=O)[C@H](C)NC(=O)[C@H](C)NC(=O)[C@H](CCC(N)=O)NC(=O)CNC(=O)[C@H](CCC(=O)O)NC(=O)[C@H](CC(C)C)NC(=O)[C@H](Cc1ccc(O)cc1)NC(=O)[C@H](CO)NC(=O)[C@H](CO)NC(=O)[C@@H](NC(=O)[C@H](CC(=O)O)NC(=O)[C@H](CO)NC(=O)[C@@H](NC(=O)[C@H](Cc1ccccc1)NC(=O)[C@@H](NC(=O)CNC(=O)[C@H](CCC(=O)O)NC(=O)[C@H](C)NC(=O)[C@@H](N)Cc1cnc[nH]1)[C@@H](C)O)[C@@H](C)O)C(C)C)C(=O)N[C@@H](CCC(=O)O)C(=O)N[C@@H](Cc1ccccc1)C(=O)N[C@H](C(=O)N[C@@H](C)C(=O)N[C@@H](Cc1c[nH]c2ccccc12)C(=O)N[C@@H](CC(C)C)C(=O)N[C@H](C(=O)N[C@@H](CCCNC(=N)N)C(=O)NCC(=O)N[C@@H](CCCNC(=N)N)C(=O)NCC(=O)O)C(C)C)[C@@H](C)CC)C(=O)O [liraglutide, Liraglutide, reference compound], the “times more exposure than CT-859” value [1] is reported as 6 times, the “AEs of Special Interest (AESI) Total” value [2] is reported as 4 (40.0) n (%) and the Abdominal pain [2] is reported as 0 n (%). The Anaemia [2] was 0 n (%), the “Any AESIs, Grade 2” value [2] was 1 (25.0%) n (%) and the Arthralgia [2] was 0 n (%). For the same molecule, the “At Least 1 Study Drug Related TEAE” value [2] was 3 (30.0) n (%), the “At Least 1 TEAE” value [2] was 7 (70.0) n (%) and the Back pain [2] was 0 n (%). The “Blood and lymphatic system disorders” value [2] was 0 n (%), the Chills [2] was 0 n (%) and the Coagulation test abnormal [2] was 0 n (%). The Constipation [2] was 0 n (%), the Decreased appetite [2] was 0 n (%) and the Diarrhoea [2] was 0 n (%). For the same molecule, the Dizziness [2] was 0 n (%), the Eructation [2] was 0 n (%) and the Gastroesophageal reflux disease [2] was 0 n (%). For the same molecule, the “General disorders and administration site conditions” value [2] was 0 n (%), the Headache [2] was 0 n (%) and the Hypoglycemia [2] was 3 (30.0) n (%). For the same molecule, the Infections and infestations [2] was 0 n (%), the “Injection Site Reaction” value [2] was 0 n (%) and the Injection site haemorrhage [2] was 0 n (%). For the same molecule, the Injection site reactions [2] was 0 n (%), the Investigations [2] was 0 n (%) and the “Musculoskeletal and connective tissue disorders” value [2] was 0 n (%). The Nervous system disorders [2] was 0 n (%), the Peripheral swelling [2] was 0 n (%) and the Rash [2] was 0 n (%). The SAEs [2] was 0 n (%), the Skin hyperpigmentation [2] was 0 n (%) and the “TEAEs leading to drug discontinuation” value [2] was 0 n (%). For the same molecule, the “Treatment Discontinuation” value [2] was 0 n (%), the Urinary tract infection [2] was 0 n (%) and the Vomiting [2] was 0 n (%). For the same molecule, the “participants with Grade 1 hypoglycemia events” value [2] was 3 participants.
In the case of “FG-EGT-FTS-DLS-KQM-EEE-AVR-LFI-EWL-LAG-GPS-SGA-PPPS-NH2 (FGEGTFTSDLSKQMEEEAVRLFIEWLLAGGPSSGAPPPS-NH2) [Ex-Phe1, reference compound]”, the “glucose tolerance and body weight vs exendin-4 (in words)” value (C57BL/6J-DIO mice) is reported as “improves glucose tolerance and decreases body weight more than exendin-4”, the “efficacy in ipGTT eight hours post-drug administration (in words)” value (C57BL/6J-DIO mice) is reported as “remained efficacious” and the “food consumption and body weight after ICV injection (in words)” value (“food consumption and body weight” below) [3] is reported as “remained efficacious”. The “food consumption and body weight” value ([3]; listed as exendin-Phe1) was “greater reduction of food intake and much more prolonged body weight reduction as compared to exendin-4” and the “signalling profile at GLP-1R (in words)” value (human GLP-1R) was “cAMP-biased agonist that prevents receptor internalization”.
With Exendin-4 [Ex-4, reference compound] the “efficacy in ipGTT eight hours post-drug administration (in words)” value (C57BL/6J-DIO mice) was “no longer effective”, the “food consumption and body weight” value [3] was “started to lose efficacy by 48 hours” and the “food consumption and body weight” value ([3]; listed as exendin-4) was “significant reduction of cumulative food consumption”.
